Holding throughout (type): cell-based
Data set [1] relates to human NHIK 3025/MEM cervix carcinoma cells. The experiment in a line: Rate of protein synthesis ([3H]-valine incorporation) in NHIK 3025 cells. The conditions noted are these: NHIK 3025/MEM cells, 1 hour treatment with [3H]-valine, compared to prior art compound 15. The text has this: Human cells of the established line NHIK 3025, originating from a cervical carcinoma in situ (Nordbye, K. and Oftebro, R., Exp. Cell Res., 58: 458, (1969)), (Oftebro, R. and Nordbye, K., Exp. Cell Res., 58: 459-460, (1969)) were cultivated in medium E2a (Puck et al., J. Exp. Med., 106: 145-165, (1957)) supplemented with 20% human (prepared at the laboratory) and 10% horse serum (Grand Island Biological Co.).
(§1) The cells are routinely grown as monolayers in tissue culture flasks. The cells were kept in continuous exponential growth by frequent reculturing, i.e. every second or third day.
(§2) During reculturing as well as during experiments the cells were kept in a walk-in incubator at 37°C.
(§3) The rate of protein synthesis was calculated as described previously (Rønning et al., J. Cell Physiol., 107: 47-57, (1981)). Briefly, cellular protein was labeled to saturation during a 2-day preincubation with [¹⁴C]-valine of constant specific radioactivity (0.5 Ci/mol) prior to the experiment. This was achieved by using a high concentration of valine so that the dilution of [¹⁴C]- valine by intracellular valine and by proteolytically generated valine will be negligible (Rønning et al., Exp. Cell Res., 123: 63-72, (1979)), thus keeping the specific radioactivity at a constant level. The rate of protein synthesis was calculated from the incorporation of [³H]-valine of constant specific activity. The incorporated measurements were related to the total of [¹⁴C]-radioactivity in protein at the beginning of the respective measurement periods and expressed as the percentage per hr (Rønning et al., J. Cell. Physiol., 107: 47-57, (1981)).
In Figure 1 the rate of protein synthesis (as % of control rate) is shown in relation to the concentration of imine used in the treatment of human NHIK 3025/MEM cervix carcinoma cells cultivated in vitro. The treatment period was for 1 hour during which the cell culture medium contained [³H]-valine in addition to the test compound. […]

The test system of data set [2] is murine B16 melanoma cells. The experiment in a line: Rate of protein synthesis in B16 melanoma cells. Conditions: Figure 3, compared to prior art compound 15. The method, then: as §3
In Figure 3, the effect of two imine compounds, 3 and 7, according to the invention and the effect of the prior art compound 15 on the protein synthesis of murine B16 melanoma cells is shown.

In data set [3] the test system is 3T3 cells (derived from mouse embryo). The experiment in a line: Rate of protein synthesis in 3T3 cells. Conditions: Figure 5.
Source text: Balb 3T3-A cells were isolated by Aaronsen and Todaro (J. Cell Physiol. 72, (1968)) 41-148) and were provided by Dr. T.Ege (Karolinska Institutet, Stockholm) in 1980 and have since been cultivated in MEM medium (Hank's salts) supplemented with 15% newborn bovine serum.
as §1, §2, §3
In Figure 5 the effect of compounds 3 and 7 on the rate of the protein synthesis of 3T3 cells (derived from mouse embryo) is shown.

Data set [4] concerns non-malignant cell line V79 (Chinese hamster lung cells). Kind of data set: Rate of protein synthesis in V79 cells. Conditions: Figure 4.
Source text: V79 379-A cells were provided by Dr. Laszlo Révész (Karolinska Institutet, Stockholm) in 1976 and have since been cultivated in MEM medium (Hank's salts) supplemented with 15% newborn bovine serum. These cells are a clone of the line V79, isolated from Chinese hamster normal lung tissue and established in culture by Ford and Yerganian (see J. Natl. Cancer Inst. 21, (1958) 393-425).
as §1, §2, §3
In Figure 4 the effect of two preferred imines according to the invention, compounds 3 and 7 , on the rate of protein synthesis in the non-malignant cell line V79 (Chinese hamster lung cells).

For data set [5], the system named is human pancreatic carcinoma cell line PANC-1. Kind of data set: Rate of protein synthesis and cell inactivation ([14C]-radioactivity) in PANC-1 cells. Conditions: for cell inactivating effect at concentrations (decline in [¹⁴C]-radioactivity): decrease in [14C]-radioactivity is a sign of cell death. On the procedure: PANC-1 cells were purchased from the American Type Culture Collection (ATCC) in 1990. These cells were derived from a human adenocarcinoma of ductal origin (Lieber et al, Int. J. Cancer 15, (1975) 741-747).
as §1, §2, §3
In Figures 6a) and b) the human pancreatic carcinoma cell line PANC-1, cultivated in the medium MEM (with new born calf serum), was used .
In Figures 7a) and b) the human pancreatic carcinoma cell line PANC-1, cultivated in the medium E2a (with human and horse serum), was used .

“Also recorded” adds a separate entry of the source.

Regarding `O=[N+]([O-])c1cccc(C=NCCCCO)c1` [Compound 7, 4-(3-Nitrobenzylidene-Amino)-Butan-1-ol], the “rate of protein synthesis (as % of control rate)” value (“rate … (as % of control rate)” below) in data set [1] (Figure 2) is “inhibited to a greater degree; also recorded: strongest inhibition on protein synthesis”. In addition, in data set [2], the “effect on the protein synthesis” value is reported as “much stronger protein synthesis inhibiting effect”. Moreover, the “effect on the rate of the protein synthesis” value in data set [3] is “strong protein synthesis inhibition”. In data set [4], the “effect on the rate of protein synthesis” value is “significantly inhibit protein synthesis; also recorded: slightly more effective than compound 3”.

On to `[2H]C(=NCCCN(C)C)c1ccccc1` [Compound 14, 1-(Benzylidene-d1-Amino)-3-(Dimethyl-amino)-Propane], for which the “cell inactivating effect at concentrations (decline in [¹⁴C]-radioactivity)” value in data set [5] (Figure 6b, PANC-1 in medium MEM) was “above 2 mM”; in data set [5] (Figure 7b, PANC-1 in medium E2a), “above 2 mM”.

In the case of `[2H]C1(c2ccccc2)OC[C@@H]([C@H]2OC(=O)C(O)=C2O)O1` (stereo partly drawn) [Compound 15, Sodium 5,6-0-Benzylidene-d1-L-Ascorbate, reference compound], the “effect on the rate of the protein synthesis” value in data set [3] is given as “little effect”. The “protein synthesis inhibiting activity” value is “little protein synthesis inhibiting activity” in data set [5] (Figures 6a/6b, PANC-1 in medium MEM (with new born calf serum)); “little protein synthesis inhibiting activity” in data set [5] (Figures 7a/7b, PANC-1 in medium E2a (with human and horse serum)). In addition, in data set [4], the “effect on the rate of protein synthesis” value was “little or no inhibition”.

As to `O=C(O)CCCCCN=Cc1cccc([N+](=O)[O-])c1` [Compound 3, 6-(3-Nitrobenzylidene-Amino)-Hexanoic Acid], the “rate … (as % of control rate)” value in data set [1] (Figure 1) is recorded as “inhibited to a greater degree; also recorded: strongest inhibition on protein synthesis”. Also, in data set [2], the “effect on the protein synthesis” value is “much stronger protein synthesis inhibiting effect”. For the same compound, in data set [3], the “effect on the rate of the protein synthesis” value was “strong protein synthesis inhibition”. In addition, the “effect on the rate of protein synthesis” value in data set [4] was “significantly inhibit protein synthesis”.

As to `COC(=O)c1ccc(C=NCCCCCCCCCCC(=O)O)cc1` [Compound 4, 11-(4-Carbomethoxy-benzylidene-Amino) -Undecanoic Acid], the “rate … (as % of control rate)” value in data set [1] (Figure 1) was “inhibited to a greater degree; also recorded: strongest inhibition on protein synthesis”.

Source of the values: patent publication EP0609032A1, “Aromatic imine compounds, pharmaceutical composition thereof, useful as protein synthesis inhibitors” (NORSK HYDRO A/S, priority 1993, dated 1994).
